Experimental data taken from patent publication US20090291973A1, “Novel Quinazoline Derivatives and Their Medical Use” (NeuroSearch A/S, priority 2005, published 2009).

Assays:
[1] = molecular target: T1, human Kv72+3 channels (Homo sapiens, UniProt O43525+O43526); test: patch-clamp, HEK293 cell lines stably expressing the human Kv72+3 channels; format: cell-based; details: 3 μM, HEK293 cells stably expressing human Kv72+3 channels
T1 construct: expressed in transfected cells

| activation compared to control [1] | melting point | SMILES |
| --- | --- | --- |
| 87% |  | COc1ccc(C(C)C(=O)Nn2c(C(C)C)nc3cc(C(F)(F)F)ccc3c2=O)cc1 (centres unmarked) [Compound B20, N-(2-Isopropyl-4-oxo-7-trifluoromethyl-4H-quinazolin-3-yl)-2-(4-methoxy-phenyl)-propionamide] |
| 60% |  | CC(C)c1nc2ccccc2c(=O)n1NC(=O)C(C)c1cccc(F)c1 (centres unmarked) [Compound B16, 2-(3-Fluoro-phenyl)-N-(2-isopropyl-4-oxo-4H-quinazolin-3-yl)-propionamide] |

Second part, the molecule before the results:

| SMILES | activation compared to control [1] | melting point |
| --- | --- | --- |
| CC(C)c1nc2ccccc2c(=O)n1NC(=O)C(c1ccccc1)C(C)C (centres unmarked) [Compound B2, N-(2-Isopropyl-4-oxo-4H-quinazolin-3-yl)-3-methyl-2-phenyl-butyramide] |  | 188 to 193 °C |
| CC(C)c1nc2ccccc2c(=O)n1NC(=O)C(C)c1ccccc1 (centres unmarked) [Compound B1, N-(2-Isopropyl-4-oxo-4H-quinazolin-3-yl)-2-phenyl-propionamide] |  | 48 to 55 °C |
| CCc1nc2cc(F)ccc2c(=O)n1NC(=O)C(C)c1ccccc1 (centres unmarked) [Compound A1, N-(2-Ethyl-7-fluoro-4-oxo-4H-quinazolin-3-yl)-2-phenyl-propionamide] |  | 57 to 63 °C |
